Laboratory results reported in patent publication US10732172B1, “Methods, systems, and compositions for determining blood clot formation, and uses thereof” (President and Fellows of Harvard College, priority 2015, dated 2020).
“Also recorded” adds a separate entry of the source.

How the values were obtained:
Type in all cases: cell-based, human
platelets [1] = experiment: Platelet coverage in collagen-coated microfluidic device, whole blood perfusion; conditions: blood with different doses of abciximab; shear 750 sec^-1
Procedure: (§1) By way of example, a microfluidic device is fabricated using photolithography followed by soft lithography with polydimethysiloxane (“PDMS”). According to this example, six microfluidic devices are placed on a single PDMS mold of the size of a standard glass slide, e.g., 75×25 millimeters (“mm”). The microfluidic devices are first exposed to oxygen plasma for 30 seconds using, for example, a PE-100 benchtop plasma system from Plasma Etch. Then, the microfluidic devices are treated with 1% (3-aminopropyl)-trimethoxysilane (“APTMS”), from Sigma, in 100% anhydrous ethanol for ten minutes. After subsequent rinsing with 70% and 100% ethanol, the microfluidic devices are dried and type I collagen from rat tail, e.g., 100 micrograms/milliliter (“μg/ml) from Corning, is introduced in microchannels of the microfluidic devices.
500 microliters (“μL”) of whole blood are pipetted into a fluid reservoir fitted to one end of a microchannel. Platelets are labeled with human CD41-PE antibody (e.g., 10 μL/mL from Invitrogen) that is directly added to the blood samples and incubated at room temperature for 10 minutes. […]
(§2) Platelets are visualized using time-lapse fluorescence imaging (e.g., 20×, NA 0.4). A time series of a 10-frame panorama (e.g., 6 mm long×0.665 mm wide region of a microchannel), at a lapse of every 30 seconds is recorded. […]

platelets [2] = experiment: Light transmission aggregometry (LTA) with ADP or collagen as agonist; conditions: blood treated ex vivo with abciximab, all doses; ADP 10 μM or collagen 2 μg/mL
Procedure: The LTA is performed in accordance with manufacturer instructions. For example, the LTA uses adenosine diphosphate (“ADP”) 10 μM and collagen 2 μg/mL from Chrono-Log.
Blood from healthy donors was treated ex vivo with abciximab or used untreated. These samples as well as clinical blood samples from subjects were centrifuged at 290 g for 10 min (no brake applied) to collect platelet rich plasma (PRP). To obtain a reference solution for each sample, PRP was centrifuged at high speed to pellet platelets (1,000 g, 10 min) and collect platelet poor plasma (PPP). CaCl2 was added to each sample at a final concentration of 1 mM to recalcify plasma before each run. Cifuni et al. “CalDAG-GEFI and protein kinase C represent alternative pathways leading to activation of integrin alphaIIbeta3 in platelets.” Blood 112, 1696-1703 (2008). LTA has then been performed at 37° C. under magnetic stirring using a Chrono-Log Corporation instrument.

platelets [3] = experiment: Platelet coverage on TNF-α pretreated, fixed (chemopreserved) endothelium in microfluidic device, whole blood perfusion
Procedure: as §1
The microfluidic devices are left overnight at 37° C. in a 5% carbon dioxide (“CO2”) incubator, after which they are rinsed with Endothelial Growth Medium-2 (“EGM-2”) from Lonza. Human Umbilical Vein Endothelial Cells (“HUVEC”) from a mixed donor, by Lonza, are kept in culture and suspended at 12.5 million cells/milliliter (“mL”) in EGM-2, after confluence. The suspension is introduced into the collagen-coated microchannels, after which the microfluidic devices are incubated upside down for 20 minutes. A fresh HUVEC suspension is then introduced in the microchannels, after which the microfluidic devices are incubated for eight hours to promote cell attachment across the channel. The microchannels are, then, rinsed with EGM-2, sometimes containing a freshly prepared solution of tumor necrosis factor (“TNF-α”), which is a recombinant from E. coli from Sigma. […]
as §2

Substance: abciximab
- platelet coverage on collagen-coated microfluidic device (platelets [1]): insignificant decrease in platelet adhesion and aggregation; also recorded: small suppressive effect on platelet adhesion; also recorded: poor sensitivity
- platelet aggregation by light transmission aggregometry (platelets [2]): no aggregation is observed; also recorded: virtually complete inhibition of platelet aggregation; also recorded: no platelet aggregability
- abciximab concentration at which optimal effects on platelet adhesion are observed (platelets [3]; fixed endothelium pretreated with TNF-α 5 ng/mL): ≥ 10 µg/mL
- difference in platelet inhibition between 10 μg/ml and 100 μg/ml (platelets [3]; fixed endothelium pretreated with TNF-α 5 ng/ml): insignificant
- platelet coverage (platelet adhesion) on fixed endothelium (platelets [3]; healthy donor whole blood with abciximab 0-100 μg/mL, endothelium pretreated with TNF-α 5 ng/mL then fixed, shear 750 s^-1): decreases with increase in abciximab drug concentration; also recorded: dose-dependent inhibition of platelet adhesion; also recorded: significant dose-dependent platelet inhibition
